Molecules are shown by their SMILES.

This is an account of results in ChEMBL document CHEMBL5727423, “Methods using HDAC11 inhibitors” (2019).

In the assay the target is T1, Histone deacetylase 11 (Homo sapiens, UniProt Q96DB2).
T1 sequence (Q96DB2 whole entry): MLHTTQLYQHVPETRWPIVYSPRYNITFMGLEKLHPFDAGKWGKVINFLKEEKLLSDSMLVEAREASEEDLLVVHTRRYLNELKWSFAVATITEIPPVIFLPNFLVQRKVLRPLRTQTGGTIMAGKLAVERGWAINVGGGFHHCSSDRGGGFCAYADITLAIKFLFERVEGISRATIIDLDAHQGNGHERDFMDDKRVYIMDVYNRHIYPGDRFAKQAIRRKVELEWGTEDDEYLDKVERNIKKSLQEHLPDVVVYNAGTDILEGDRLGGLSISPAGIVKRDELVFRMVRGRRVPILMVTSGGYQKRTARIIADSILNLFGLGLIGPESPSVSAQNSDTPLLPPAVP
The assay is described as follows: HDAC Inhibition Assays: This example describes in vitro inhibition properties of exemplary HDAC11 inhibitors for various HDACs. HDAC inhibition assays were performed using an electrophoretic mobility shift assay at Nanosyn, Inc. (Santa Clara, Calif.). Full length human recombinant HDAC proteins were expressed in the baculoviral system and purified by affinity chromatography. A human recombinant HDAC3 was co-expressed with nuclear receptor corepressor (Ncor2). The following peptide substrates were used: FAM-RHKK(Ac)-NH2 for HDAC3, HDAC6 and HDAC8; FITC-H3K27(Ac)-NH2 for HDAC1, HDAC2 and HDAC10; FAM-RHKK(tri-fluor-Ac)-NH2 for HDAC4, HDAC5, HDAC7, HDAC9 and HDAC11. Reactions consisting of compound, enzyme, and substrate were performed in reaction buffer (comprised of 100 mM HEPES, pH7.5, 25 mM KCl, 0.1% bovine serum albumin, 0.01% Triton X-100) at 25° C. and quenched by the addition of termination buffer (100 mM HEPES, pH7.5, 0.01% Triton X-100, 0.05% SDS). The fluorescence intensity of the electrophoretically separated de-acetylated product and substrate peptide were measured and analyzed using the LabChip® 3000 microfluidic electrophoresis instrument (Perkin Elmer/Caliper Life Sciences). The IC50 values of inhibitors were determined by fitting the %-inhibition curves with 4 parameter dose-response model using XLfit 4 software (IDBS).

As a reminder, the IC50 is the concentration that inhibits the measured activity by half. Consider `N#Cc1cc2nc(Nc3cccc(C(=O)NO)c3)[nH]c2cc1C(F)(F)F`, for which the IC50 was below 500 nM.
